This note sets out measurements from article PMC12040169 (PLOS Biology, 2025).

SMILES strings stand for the structures.

The series is described as follows: in vitro. The settings on record: human, hela cells, % viability.

By viability is commonly meant a read-out of living cells in per cent, often relative to untreated cells.

With `COc1nc2ccn(CCN3C(=O)CCC3=O)c(=O)c2cc1C#N` [CBK307422], the viability at 28.5 h, 10 µM was 94.7%.

Take `Nc1cc(=O)[nH]c(SCC(=O)N2CCc3ccccc32)n1` [CBK307424]: the viability at 28.5 h, 10 µM stood at 94.4%. Consider `CCCN1CCCC(NS(=O)(=O)c2cc(-n3cccn3)ccc2OC)C1` (stereo not shown) [CBK307426], for which the viability at 28.5 h, 10 µM was 91.8%. In the case of `COCCn1cnnc1C(C)NC(=O)N(C)Cc1nc2ccccc2s1` (stereo not shown) [CBK307427] it was 88.2%.

On to `Cc1nc(NCCN2CCCC(CO)C2)nc2c1CCCC2` (stereo not shown) [CBK307430], for which the viability at 28.5 h, 10 µM was 82%.

Turning to `CN1CCC(O)(Cn2cnc3cc(-c4ccc(F)cc4)sc3c2=O)CC1` [CBK307434], the viability at 28.5 h, 10 µM was determined as 101%. In the case of `COCCN(Cc1cnn(C)c1)C(=O)Cc1coc2cc(C)c(Cl)cc12` [CBK307435] it was 108%; in that of `O=C(O)[C@H]1CCCN1Cc1cc(Cl)ccc1OCCCn1ccnc1` [CBK307436], 109%.

For `CC(O)c1cc2n(n1)CCN(C(=O)c1csc(Cc3ccccc3)n1)C2` (stereo not shown) [CBK307437], the viability at 28.5 h, 10 µM stood at 98.1%. On to `CCNC(=O)C1CCN(Cc2c[nH]nc2-c2ccc(F)cc2)C1` (stereo not shown) [CBK307438], for which the viability at 28.5 h, 10 µM came out at 90%.

`CCCN(Cc1nccn1C)C(=O)Cn1nc(C)c2ccccc2c1=O` [CBK307441]: the viability at 28.5 h, 10 µM worked out at 95.4%. In the case of `CCCC(NC(=O)Nc1ccnn1CC(C)C)c1nccn1C` (stereo not shown) [CBK307444] it was 92.7%; in that of `Cc1nc(N)nc(NCCC2CCCN(C)C2)c1Cl` (stereo not shown) [CBK307445], 88.6%; in that of `Cn1c(N2CC[C@H](O)C2)nc2cc(C(=O)NCCC3CCCC3)ccc21` [CBK307447], 87.9%. With `CC(C)c1nccn1CCCNC(=O)N1CCCC(c2ccncn2)C1` (stereo not shown) [CBK307448], the viability at 28.5 h, 10 µM worked out at 88.7%. In the case of `CSc1ncc(CNC(=O)CC2CCc3ccccc32)n1C` (stereo not shown) [CBK307450] it was 85.9%; in that of `CCc1ccc(NC(=O)N2CCCCC2CCn2ccnc2)cc1` (stereo not shown) [CBK307453], 110%.

With `COc1ccc(C(=O)N2CCN(c3nc4c(s3)c(C)nn4C)CC2)cc1` [CBK307457], the viability at 28.5 h, 10 µM is 96%. In the case of `CCN1CC2(CCC1=O)CCN(Cc1nncn1C(C)C)CC2` [CBK307460] it was 107%; in that of `NCCn1cc(C(=O)N2Cc3cnn(Cc4ccc(F)cc4)c3C2)nn1` [CBK307461], 107%; in that of `CCNC(=O)C1CCN(C(=O)c2coc(COc3cccc(F)c3)n2)C1` (stereo not shown) [CBK307466], 86.3%. Turning to `Cc1cc(C(F)(F)F)nc(CCNC(=O)N(Cc2ccsc2)C2CC2)n1` [CBK307468], the viability at 28.5 h, 10 µM was 107%.

In the case of `Cc1nc(C(=O)NC2CC(=O)N(CCc3ccc(F)cc3)C2)cs1` (stereo not shown) [CBK307473], the viability at 28.5 h, 10 µM was 100%.

For the compound `Cc1nc(C(=O)N2CCn3nc(C(O)c4ccccc4)cc3C2)c(C)s1` (stereo not shown) [CBK307474], the viability at 28.5 h, 10 µM turned out to be 92.5%. For the compound `CN1CCN(C)C(CNC(=O)c2ccc(-c3ccccc3CO)cc2)C1` (stereo not shown) [CBK307475], the viability at 28.5 h, 10 µM amounted to 84.2%.

As to `COc1cccc(CN2CCCC(NC(=O)c3cnn(C(C)C)c3)C2)c1` (stereo not shown) [CBK307477], the viability at 28.5 h, 10 µM stood at 91.3%. In the case of `CN(Cc1nccs1)C(=O)c1cccc(OCC(=O)N2CCCCC2)c1` [CBK307478] it was 108%; in that of `Cn1c(N2CC[C@H](O)C2)nc2cc(C(=O)NCCn3cccc3)ccc21` [CBK307480], 83.6%.

Take `CSc1nnc(CC2CCN(C(=O)c3cc(C)on3)CC2)n1C` [CBK307481]: the viability at 28.5 h, 10 µM was 108%.

Turning to `Cc1cc(=O)n(CC(=O)N2CCC3(CCCN(C(C)C)C3=O)C2)nc1C` (stereo not shown) [CBK307482], the viability at 28.5 h, 10 µM is 90%. With `CCC(Cn1ccnc1)NS(=O)(=O)c1cc(-n2cccn2)ccc1OC` (stereo not shown) [CBK307483], the viability at 28.5 h, 10 µM stood at 87.8%. For the compound `CCCCn1nccc1NC(=O)NC(C)c1n[nH]c(C)n1` (stereo not shown) [CBK307486], the viability at 28.5 h, 10 µM amounted to 99.4%. As to `CCc1c(-c2cccc(C(=O)N3CCS(=O)(=O)CC3)c2)cnn1C` [CBK307487], the viability at 28.5 h, 10 µM was 75.3%. In the case of `c1cnn(CC2CCCN2c2ncnc3sc4c(c23)CCNC4)c1` (stereo not shown) [CBK307490] it was 85.9%; in that of `OC1(CN2CCCC2)CCN(Cc2sccc2Cl)CC1` [CBK307491], 105%; in that of `COCCc1noc(C(C)NC(=O)Cc2cccc(O)c2)n1` (stereo not shown) [CBK307493], 99.5%.

For `CCCCC(c1cccnc1)N(C)C(=O)c1cccn(C)c1=O` (stereo not shown) [CBK307496], the viability at 28.5 h, 10 µM turned out to be 114%. In the case of `Cc1nn2cc(CNC(=O)C3Cc4ccccc4O3)nc2s1` (stereo not shown) [CBK307498] it was 73.4%; in that of `CCc1c(C(=O)N(C)Cc2cnn(C(C)C)c2)[nH]c2ccccc12` [CBK307501], 92.9%. With `CCCS(=O)(=O)N1CCCC(Cc2ccccc2C)(C(=O)OCC)C1` (stereo not shown) [CBK307502], the viability at 28.5 h, 10 µM amounted to 84.9%.

For the compound `CCC(NC(=O)c1cc(CC(C)C)nn1CC)c1cn2cccnc2n1` (stereo not shown) [CBK307505], the viability at 28.5 h, 10 µM was determined as 101%.

Take `OCCn1nc(C2CCCC2)nc1CCc1c[nH]c2ccccc12` [CBK307509]: the viability at 28.5 h, 10 µM is 85.1%.

For the compound `CCOCc1nc2c(c(NCc3cc(C)on3)n1)CCN(C(C)=O)CC2` [CBK307512], the viability at 28.5 h, 10 µM turned out to be 87.4%. In the case of `Cc1csc2c(N3CCC(NCCc4ccnn4C)CC3)ncnc12` [CBK307515] it was 89.8%; in that of `CCOC(=O)C1(Cc2ccc(F)cc2F)CCCN(C(C)=O)C1` (stereo not shown) [CBK307516], 106%.

Consider `CN1CCN(CC2(CNC(=O)c3ccc(C(=O)O)cc3)CC2)CC1` [CBK307517], for which the viability at 28.5 h, 10 µM turned out to be 102%. Take `Cc1ccn2cc(CNC(=O)CN3CCOc4ccccc4C3)nc2c1` [CBK307518]: the viability at 28.5 h, 10 µM is 84.6%. In the case of `COCCc1nc(Cc2ccc(OC)cc2)nn1CC1COCCO1` (stereo not shown) [CBK307521] it was 89.7%; in that of `CCC(O)Cn1nc(CCSC)nc1-c1ccc2[nH]ccc2c1` (stereo not shown) [CBK307526], 104%. In the case of `COc1ccc(C(NC(=O)Cn2cccnc2=O)C2CC(O)C2)cn1` (stereo not shown) [CBK307527] it was 83.4%. In the case of `CCc1ccc(CN2CCC(Oc3ccccc3F)(C(=O)O)CC2)nc1` [CBK307528], the viability at 28.5 h, 10 µM was found to be 93.1%. As to `Cc1nnc(SCCCNC(=O)C2CC(=O)N(Cc3ccccn3)C2)s1` (stereo not shown) [CBK307529], the viability at 28.5 h, 10 µM was found to be 101%.

Regarding `CCOc1ccc(-c2ccnc(NCC(C)(C)CO)n2)cc1C(=O)O` [CBK307530], the viability at 28.5 h, 10 µM came to 88.6%. In the case of `CCCS(=O)(=O)NC1CC(C)(C)Cc2c1cnn2-c1ccc(C)cc1` (stereo not shown) [CBK307531] it was 86.5%; in that of `Cc1ccc(OCc2occc2C(=O)N2CCCC3(CCOC3)C2)cc1` (stereo not shown) [CBK307532], 89.4%. In the case of `CC(NC(=O)N1CCCN(Cc2ccccn2)CC1)c1cnn(C)c1` (stereo not shown) [CBK307537] it was 102%. On to `CC(C)CCN1CCn2nc(CNc3cnccn3)cc2C1` [CBK307540], for which the viability at 28.5 h, 10 µM was found to be 85.8%. In the case of `CCc1nc2c(N3CCCn4nc(C(O)C5CC5)cc4C3)ncnc2o1` (stereo not shown) [CBK307543] it was 78.6%; in that of `CCCn1ncnc1C(C)NC(=O)Nc1ccnn1CC(C)C` (stereo not shown) [CBK307545], 116%; in that of `COc1cccc(C2CC(=O)Nc3c2c(=O)nc(SC)n3C)c1` (stereo not shown) [CBK307546], 104%. In the case of `CCCNS(=O)(=O)c1cc2c3c(c1)c(C)cc(=O)n3CCC2` [CBK307547] it was 97.1%; in that of `CO[C@@]12CC[C@@H](OCC(=O)O)C[C@@H]1N(Cc1ccccc1C)CC2` [CBK307548], 104%. In the case of `CC(=O)N1CCN(C(=O)Cn2ccc3ccccc32)CC(O)C1` (stereo not shown) [CBK307552] it was 98.1%; in that of `COc1nccc(N2CCCC(CO)(CC3CC3)C2)c1C#N` (stereo not shown) [CBK307553], 89.3%; in that of `Cc1cc(C)n(CCn2cc(-c3ncc[nH]3)nn2)c(=O)n1` [CBK307554], 83.1%. Take `COC(=O)Cn1c(C(C)(C)C)cn2c3c(=O)n(C)c(=O)n(C)c3nc12` [CBK307555]: the viability at 28.5 h, 10 µM stood at 84.3%. In the case of `Cc1cnn(C(C)C(=O)N2CCc3c(nc(N(C)C)nc3N(C)C)C2)c1` (stereo not shown) [CBK307556] it was 109%.

Turning to `COc1cncc(C(NC(=O)Cn2ccccc2=O)[C@H]2C[C@@H](O)C2)c1` (stereo partly shown) [CBK307557], the viability at 28.5 h, 10 µM was 92.5%. On to `O=C(c1cnc[nH]1)N1CCn2nc(C(O)Cc3ccccc3)cc2C1` (stereo not shown) [CBK307558], for which the viability at 28.5 h, 10 µM amounted to 109%. As for `Cc1c(C)n(Cc2ccco2)c2ncnc(NC(C)C(=O)O)c12` (stereo not shown) [CBK307561], the viability at 28.5 h, 10 µM is 106%. In the case of `Cc1c(C)n(Cc2ccco2)c2ncnc(NCCC(=O)O)c12` [CBK307564] it was 86.8%; in that of `CCOCCn1c(=O)c2c(nc3oc(C(C)(C)C)cn32)n(C)c1=O` [CBK307567], 103%.

As for `Cc1c(C)n(Cc2ccco2)c2ncnc(SCCC(=O)O)c12` [CBK307569], the viability at 28.5 h, 10 µM was found to be 105%. For the compound `CNC(=O)CN(C)C(=O)c1coc(COc2ccc3sc(C)nc3c2)n1` [CBK307571], the viability at 28.5 h, 10 µM is 83.1%. As to `COc1cccc(C(=O)NCCC(=O)N2CCc3ccccc3C2)c1` [CBK307575], the viability at 28.5 h, 10 µM is 84.3%.

With `COc1ccc(CNC(=O)c2cc(S(=O)(=O)N3CCCC3)cs2)cc1` [CBK307576], the viability at 28.5 h, 10 µM was 93.6%. Regarding `NC(=O)c1c(NC(=O)NCc2cccnc2)sc2c1CCC2` [CBK307578], the viability at 28.5 h, 10 µM came to 70.3%. In the case of `Cn1cnc2cc(NC(=O)NCCN3CCCC(CO)C3)ccc21` (stereo not shown) [CBK307582], the viability at 28.5 h, 10 µM stood at 107%.

On to `O=C(NCCc1ccccc1)C1CCN(C(=O)c2cccc(F)c2)CC1` [CBK307583], for which the viability at 28.5 h, 10 µM worked out at 82.2%. In the case of `Cn1cnnc1CCC(=O)NCC1CCN(c2ccccc2F)C1` (stereo not shown) [CBK307587] it was 76.5%.

Turning to `Cc1nnc(NC(=O)C2CCN(C(=O)c3cccc(F)c3)CC2)s1` [CBK307588], the viability at 28.5 h, 10 µM turned out to be 93.2%. In the case of `COc1ccc(CNC(=O)c2cc(S(=O)(=O)N3CCCCC3)cs2)cc1` [CBK307590] it was 85.9%.
